From US9296723B2, “NAMPT inhibitors” (AbbVie Inc., priority 2012, dated 2016)
One block for each molecule: values may come before it.

Experiments:
NAMPT [1] = molecular target: T1, NAMPT (Homo sapiens, UniProt P43490); assay: TR-FRET Binding Assay of NAMPT with PRPP; settings: 2 nM NAMPT, 2 nM probe, 200 µM PRPP and 2.5 mM ATP, equilibrated 16 hours
Procedure: Time-Resolved Fluorescence Resonance Energy Transfer (TR-FRET) Binding Assay of NAMPT with PRPP
Compound handling and data processing were identical to the assay in the absence of substrates (above). Final concentrations were 1× assay buffer, 2% DMSO, 2 nM NAMPT, 2 nM probe, 1 nM Tb-anti-His antibody (Invitrogen #PV5895), 200 µM PRPP and 2.5 mM ATP. Reactions were equilibrated for 16 hours prior to measurement to allow for potential enzymatic modification of test compounds.

NAMPT [2] = molecular target: T1, NAMPT; assay: Time-Resolved Fluorescence Resonance Energy Transfer (TR-FRET) Binding Assay of NAMPT; settings: 6.8 nM NAMPT, 200 nM probe, equilibrated 3 hours, no substrates
Outline: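 Compound was mixed with enzyme, probe and antibody and equilibrated 3 h at room temperature. TR-FRET read at Ex 337 nm, Em 520/495 nm. Ratios were normalized to controls and fitted to a four-parameter logistic equation for IC50.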

PC3 cells = assay: NAMPT Cell Proliferation Assay (Cell Titer Glo); format: cell-based; settings: Homo sapiens, PC-3, 120 h, incubated 5 days, cell viability
Outline: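 PC3 cells (500/well, RPMI with 10% heat-inactivated FBS) were exposed to 10-fold compound dilutions from […] for 5 days at 37 °C, 5% CO2. Viability was read with Cell Titer Glo; IC50 from sigmoidal fit of percent inhibition.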

T1 sequence (P43490 whole entry): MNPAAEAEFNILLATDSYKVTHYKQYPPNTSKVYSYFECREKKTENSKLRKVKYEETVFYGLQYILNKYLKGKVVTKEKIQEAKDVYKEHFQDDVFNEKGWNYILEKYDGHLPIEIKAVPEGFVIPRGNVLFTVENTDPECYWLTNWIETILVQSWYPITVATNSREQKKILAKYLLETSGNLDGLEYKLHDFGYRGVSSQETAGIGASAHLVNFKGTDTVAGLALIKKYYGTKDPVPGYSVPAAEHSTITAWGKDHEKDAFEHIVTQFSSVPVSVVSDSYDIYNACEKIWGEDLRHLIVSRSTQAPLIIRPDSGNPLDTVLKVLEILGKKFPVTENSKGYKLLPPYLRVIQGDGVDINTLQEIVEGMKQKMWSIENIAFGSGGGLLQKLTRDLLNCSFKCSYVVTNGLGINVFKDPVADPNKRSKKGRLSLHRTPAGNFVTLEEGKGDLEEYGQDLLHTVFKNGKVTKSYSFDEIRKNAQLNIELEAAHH

Compound: CCOCCC(=O)N1CC(c2ccc(NC(=O)N3CC(c4cccnc4)C3)cc2)C1 [Example 203, N-{4-[1-(3-ethoxypropanoyl)azetidin-3-yl]phenyl}-3-(pyridin-3-yl)azetidine-1-carboxamide]
IC50 (NAMPT [1]): 0.000427 µM
IC50 (NAMPT [2]): 0.25 µM

Compound: O=C(Nc1ccc(C2CN(C(=O)C3CCCCC3)C2)cc1)N1CC(c2cccnc2)C1 [Example 211, N-{4-[1-(cyclohexylcarbonyl)azetidin-3-yl]phenyl}-3-(pyridin-3-yl)azetidine-1-carboxamide]
IC50 (NAMPT [1]): 0.000341 µM
IC50 (NAMPT [2]): 0.0559 µM

Compound: O=C(CCC(F)(F)F)N1CC(c2ccc(NC(=O)N3CC(c4cccnc4)C3)cc2)C1 [Example 213, 3-(pyridin-3-yl)-N-{4-[1-(4,4,4-trifluorobutanoyl)azetidin-3-yl]phenyl}azetidine-1-carboxamide]
IC50 (NAMPT [1]): 0.000352 µM
IC50 (NAMPT [2]): 0.0873 µM

Compound: CC1(C(=O)N2CC(c3ccc(NC(=O)N4CC(c5cccnc5)C4)cc3)C2)CCCCC1 [Example 215, N-(4-{1-[(1-methylcyclohexyl)carbonyl]azetidin-3-yl}phenyl)-3-(pyridin-3-yl)azetidine-1-carboxamide]
IC50 (NAMPT [1]): 0.000294 µM
IC50 (NAMPT [2]): 0.0274 µM

Compound: O=C(Nc1ccc(C2CN(C(=O)c3ccsc3)C2)cc1)N1CC(c2cccnc2)C1 [Example 219, 3-(pyridin-3-yl)-N-{4-[1-(thiophen-3-ylcarbonyl)azetidin-3-yl]phenyl}azetidine-1-carboxamide]
IC50 (NAMPT [1]): 0.00029 µM
IC50 (NAMPT [2]): 0.0194 µM

Compound: O=C(CN1CCOCC1)N1CC(c2ccc(NC(=O)N3CC(c4cccnc4)C3)cc2)C1 [Example 221, N-{4-[1-(morpholin-4-ylacetyl)azetidin-3-yl]phenyl}-3-(pyridin-3-yl)azetidine-1-carboxamide]
IC50 (NAMPT [1]): 0.000319 µM
IC50 (NAMPT [2]): 0.152 µM

Compound: Cc1ccc(C(=O)N2CC(c3ccc(NC(=O)N4CC(c5cccnc5)C4)cc3)C2)s1 [Example 223, N-(4-{1-[(5-methylthiophen-2-yl)carbonyl]azetidin-3-yl}phenyl)-3-(pyridin-3-yl)azetidine-1-carboxamide]
IC50 (NAMPT [1]): 0.000391 µM
IC50 (NAMPT [2]): 0.0216 µM

Compound: Cn1cccc1C(=O)N1CC(c2ccc(NC(=O)N3CC(c4cccnc4)C3)cc2)C1 [Example 225, N-(4-{1-[(1-methyl-1H-pyrrol-2-yl)carbonyl]azetidin-3-yl}phenyl)-3-(pyridin-3-yl)azetidine-1-carboxamide]
IC50 (NAMPT [1]): 0.000268 µM
IC50 (NAMPT [2]): 0.014 µM

Compound: O=C(Nc1ccc(C2CN(C(=O)c3nccs3)C2)cc1)N1CC(c2cccnc2)C1 [Example 228, 3-(pyridin-3-yl)-N-{4-[1-(1,3-thiazol-2-ylcarbonyl)azetidin-3-yl]phenyl}azetidine-1-carboxamide]
IC50 (NAMPT [1]): 0.00031 µM
IC50 (NAMPT [2]): 0.0196 µM

Compound: O=C(CC1CCCC1)N1CC(c2ccc(NC(=O)N3CC(c4cccnc4)C3)cc2)C1 [Example 229, N-{4-[1-(cyclopentylacetyl)azetidin-3-yl]phenyl}-3-(pyridin-3-yl)azetidine-1-carboxamide]
IC50 (NAMPT [1]): 0.000314 µM
IC50 (NAMPT [2]): 0.0403 µM

Compound: O=C(Nc1ccc(C2CCN(CC3CCCCC3)CC2)cc1)N1CC(c2cccnc2)C1 [Example 232, N-{4-[1-(cyclohexylmethyl)piperidin-4-yl]phenyl}-3-(pyridin-3-yl)azetidine-1-carboxamide]
IC50 (NAMPT [1]): 0.000181 µM
IC50 (NAMPT [2]): 0.352 µM

Compound: CCCC(C)CN1CCC(c2ccc(NC(=O)N3CC(c4cccnc4)C3)cc2)CC1 (centres unmarked) [Example 234, N-{4-[1-(2-methylpentyl)piperidin-4-yl]phenyl}-3-(pyridin-3-yl)azetidine-1-carboxamide]
IC50 (NAMPT [1]): 0.000529 µM
IC50 (NAMPT [2]): 0.76 µM

Compound: CC(C)CCN1CCC(c2ccc(NC(=O)N3CC(c4cccnc4)C3)cc2)CC1 [Example 236, N-{4-[1-(3-methylbutyl)piperidin-4-yl]phenyl}-3-(pyridin-3-yl)azetidine-1-carboxamide]
IC50 (NAMPT [1]): 0.00021 µM
IC50 (NAMPT [2]): 0.667 µM

Compound: CC(C)CCC(=O)N1CC[C@@H](Oc2ccc(NC(=O)N3CC(c4cccnc4)C3)cc2)C1 [Example 315, N-(4-{[(3R)-1-(4-methylpentanoyl)pyrrolidin-3-yl]oxy}phenyl)-3-(pyridin-3-yl)azetidine-1-carboxamide]
IC50 (PC3 cells): 0.0542 µM
IC50 (NAMPT [2]): 0.0487 µM

Compound: CC1(C(=O)N2CC[C@@H](Oc3ccc(NC(=O)N4CC(c5cccnc5)C4)cc3)C2)CCCCC1 [Example 316, N-[4-({(3R)-1-[(1-methylcyclohexyl)carbonyl]pyrrolidin-3-yl}oxy)phenyl]-3-(pyridin-3-yl)azetidine-1-carboxamide]
IC50 (PC3 cells): 0.0173 µM
IC50 (NAMPT [2]): 0.0136 µM

Compound: CC(C)(C)C(=O)N1CC[C@@H](Oc2ccc(NC(=O)N3CC(c4cccnc4)C3)cc2)C1 [Example 322, N-(4-{[(3R)-1-(2,2-dimethylpropanoyl)pyrrolidin-3-yl]oxy}phenyl)-3-(pyridin-3-yl)azetidine-1-carboxamide]
IC50 (PC3 cells): 0.0125 µM
IC50 (NAMPT [2]): 0.0349 µM

Compound: O=C(CCN1CCCCC1)N1CC[C@@H](Oc2ccc(NC(=O)N3CC(c4cccnc4)C3)cc2)C1 [Example 327, N-[4-({(3R)-1-[3-(piperidin-1-yl)propanoyl]pyrrolidin-3-yl}oxy)phenyl]-3-(pyridin-3-yl)azetidine-1-carboxamide]
IC50 (PC3 cells): 0.189 µM
IC50 (NAMPT [2]): 0.45 µM

Second part, the molecule after the results:

IC50 (NAMPT [1]): 0.000356 µM
IC50 (NAMPT [2]): 0.128 µM
Compound: CC1CC1C(=O)N1CC(c2ccc(NC(=O)N3CC(c4cccnc4)C3)cc2)C1 (centres unmarked) [Example 199, N-(4-{1-[(2-methylcyclopropyl)carbonyl]azetidin-3-yl}phenyl)-3-(pyridin-3-yl)azetidine-1-carboxamide]

IC50 (NAMPT [1]): 0.000313 µM
IC50 (NAMPT [2]): 0.0432 µM
Compound: CC(C)CCC(=O)N1CC(c2ccc(NC(=O)N3CC(c4cccnc4)C3)cc2)C1 [Example 201, N-{4-[1-(4-methylpentanoyl)azetidin-3-yl]phenyl}-3-(pyridin-3-yl)azetidine-1-carboxamide]

IC50 (NAMPT [1]): 0.000242 µM
IC50 (NAMPT [2]): 0.0426 µM
Compound: CC(C)(C)CC(=O)N1CC(c2ccc(NC(=O)N3CC(c4cccnc4)C3)cc2)C1 [Example 205, N-{4-[1-(3,3-dimethylbutanoyl)azetidin-3-yl]phenyl}-3-(pyridin-3-yl)azetidine-1-carboxamide]

IC50 (NAMPT [1]): 0.00037 µM
IC50 (NAMPT [2]): 0.451 µM
Compound: CCOCC(=O)N1CC(c2ccc(NC(=O)N3CC(c4cccnc4)C3)cc2)C1 [Example 207, N-{4-[1-(ethoxyacetyl)azetidin-3-yl]phenyl}-3-(pyridin-3-yl)azetidine-1-carboxamide]

IC50 (NAMPT [1]): 0.000694 µM
IC50 (NAMPT [2]): 0.024 µM
Compound: CC(=O)N[C@@H](CC(C)C)C(=O)N1CC(c2ccc(NC(=O)N3CC(c4cccnc4)C3)cc2)C1 [Example 209, N-{4-[1-(N-acetyl-L-leucyl)azetidin-3-yl]phenyl}-3-(pyridin-3-yl)azetidine-1-carboxamide]

IC50 (NAMPT [1]): 0.00032 µM
IC50 (NAMPT [2]): 0.278 µM
Compound: CC(=O)N1CC(c2ccc(NC(=O)N3CC(c4cccnc4)C3)cc2)C1 [Example 217, N-[4-(1-acetylazetidin-3-yl)phenyl]-3-(pyridin-3-yl)azetidine-1-carboxamide]

IC50 (NAMPT [1]): 0.000294 µM
IC50 (NAMPT [2]): 0.0692 µM
Compound: CC1(C(=O)N2CC(c3ccc(NC(=O)N4CC(c5cccnc5)C4)cc3)C2)CC1 [Example 227, N-(4-{1-[(1-methylcyclopropyl)carbonyl]azetidin-3-yl}phenyl)-3-(pyridin-3-yl)azetidine-1-carboxamide]

IC50 (NAMPT [1]): 0.000305 µM
IC50 (NAMPT [2]): 0.0388 µM
Compound: CC(C)C(C)C(=O)N1CC(c2ccc(NC(=O)N3CC(c4cccnc4)C3)cc2)C1 (centres unmarked) [Example 230, N-{4-[1-(2,3-dimethylbutanoyl)azetidin-3-yl]phenyl}-3-(pyridin-3-yl)azetidine-1-carboxamide]
